Series [1] in a line: Abdominal CT scan: visceral (VAT) and subcutaneous (SAT) adipose tissue, abdominal perimeter. To be noted: for change in abdominal perimeter by CT scan, mean±SEM: 12 weeks. The series is classed as in vivo, human. On the procedure: All CT scans were performed on GE Sytec 4000 CT scanners or an equivalent scanner.
An initial Abdominal Scan was performed using the following procedure: • 1. After the thigh scan was complete, a small triangular wedge pillow was placed under the subject's knees to help tilt the spine to the correct position. The arms were crossed over the chest/neck with elbows up and out of the way of the abdomen. The subject's underpants were pulled down so that the elastic of the underwear was well out of the way of the site where the scan was taken. • 2. The technician positioned the bed in the scanner so that a lateral topogram could be taken that included at least T12 through L5 of the spine. This picture was recorded on film. • 3. The location of the midsection of L3 was identified. • 4. A 10-mm slice at the level of the midpoint of L3 (angle must be zero so that the slice was perpendicular) was taken at the same settings as were used for the thigh slice, with the exception of the DFOV, which was 35 or 45 (35 for a small person and 45 for a large person).
The entire cross section of the abdomen was on the screen. If the entire abdomen was not on the screen, the picture was reconfigured. Once the entire abdomen was on the screen, the technician downloaded it onto the disk and verified that the image was actually on the disk. This was then recorded on film. • 5. The technician sent the film to the printer at this point. It was a requirement that each film had four pictures, and the film had the lateral topogram of the spine and the slice. • 6. The technician then recorded the exam number, the series number, and the image number of slice. • 7. The subject was then removed from the table if there were no more measurements to obtain and the film was collected.
The same procedures were then followed for the repeat abdominal scans with identical settings and locations being used for the repeat scans.
Slices were downloaded onto the scanner and then retrieved via optical disk (or the Internet if possible) to a computer for analysis. During analysis, the area of intra-abdominal and subcutaneous fat as well as oblique, psoas, quadratum laborum, and sacrospinalis muscles were measured. The images were digitized by optical density to separate bone, muscle, and fat compartments using a modified version of the NIH IMAGE program. Pixel units were converted to area measurements using an internal calibration standard. Digitized images were analyzed in a blinded fashion. The coefficient of variation of repeated analysis of a single scan is <1.5%.
Another independent measurement was that the CT scan assessed the abdominal diameter and the abdominal perimeter (e.g., belt size). The abdominal perimeter in subjects treated with glyburide alone was unchanged (−0.3±0.8 cm, mean±SEM) but in subjects treated with IGF-I at 20 micrograms/kg it was reduced (−1.4±0.8 cm) and was reduced even more in subjects treated with 40 micrograms/kg to (−2.9±1.3 cm). This reduction in “girth” caused by high dose IGF-I was, in layman's terms over an inch, or one belt notch, clearly a significant effect in only 12 weeks.
The body components contributing to these beneficial effects of IGF-I on body weight, BMI and girth were then analyzed by studying the changes in body composition as measured by computerized scanning. Two scans were performed. A scan was performed before treatment with IGF-I and another scan was performed after treatment with IGF-I. These two scans were analyzed by measuring the area of fat so that the effect of treatment with IGF-I could be ascertained.
The effect of IGF-I on body fat was estimated using the visceral adipose tissue (VAT) in abdomen and the subcutaneous adipose tissue (SAT) in the abdomen. The absolute changes in fat and the percent changes in fat were both analyzed. The percent changes were analyzed to guard against subjects with larger amounts of fat being given undue statistical weight in the analyses. […]

Series [2] can be described thus: Change in body weight. The series is classed as in vivo, human. To be noted: for Weight Change (SE) Week 12: change from Day 1. An excerpt: The efficacy endpoints were the change in glucose control as assessed by the change from baseline (day 1 to week 12) in hemoglobin A1c (HbA1c) levels, and changes from baseline (day 1 to week 12) in fasting blood glucose (BG), body weight, and visceral and mid-thigh fat.
The primary efficacy variable for the assessment of treatment effect on glucose control at Week 12 was the change from baseline (day 1) in HbA1c levels. Secondary efficacy variables assessing glucose control at Week 12 were the change from baseline (day 1) for each of the following: fasting blood glucose concentration, weight, and visceral and mid-thigh fat.
Secondary efficacy variables assessing glucose control at Week 12 were the change from baseline (Day 1) for each of the following: weight, and visceral and mid-thigh fat.

Series [3] is described as follows: Adverse events judged possibly or probably related to study drug. To be noted: glyburide 10 mg BID + rhIGF-I placebo (N = 34).
Procedure: All adverse events occurring during the treatment and post-treatment periods of the study (day 1 to week 14) were monitored through the follow-up evaluation at week 14. Adverse events continuing beyond the follow-up period were monitored until resolution, as appropriate.
In addition to the adverse events described above, hypoglycemia was expected to occur in some subjects. Hypoglycemia was defined as a BG of <50 mg/dL as indicated by the One-Touch Profile BG meter or the clinical laboratory. In the event of repeated hypoglycemic episodes, the glyburide dose could be decreased (during the treatment period only). Symptomatic hypoglycemic episodes, regardless of blood glucose reading, were documented as hypoglycemia.
The nature of series [4]: Change in BMI. The series is classed as in vivo, human. To be noted: for BMI Change (SE) Wk 14: 2 weeks after treatment stopped. An excerpt: The degree of obesity in humans is commonly assessed by calculating the body mass index or BMI. The BMI is essentially correcting body weight for height. Obviously a very tall person will likely weigh more than a person with short stature so this correction for height makes BMI a better gauge of the degree of obesity than uncorrected body weight. Table 6 gives the BMI data for the subjects treated with IGF-I. At baseline the subjects had average BMIs of over 30. Overweight is defined as a BMI of over 25 and obesity is defined as a BMI of over 30. […] Treatment with IGF-I reduced BMI and this effect was maintained until week 14, which was 2 weeks after treatment with IGF-I was stopped. In subjects treated with 20 micrograms of IGF-I, BMI fell by 1.0 kg/m^2 at 12 weeks and 0.9 kg/m^2 at week 14. This effect of IGF-I on BMI was highly statistically significant versus glyburide at week 12 (p=0.019) and week 14 (p=0.0064). Therefore IGF-I had the ability to reduce BMI or directly affect the most widely accepted measure of obesity. […] This greater effect of low dose IGF-I was unexpected.

The conditions of series [5]: rats, catabolic state induced by diabetes, dexamethasone, or intestinal resection; cited from earlier work.
For series [6] the following is noted: IGF-I administration in human subjects; cited from earlier work.
The conditions of series [7]: mini-poodles; cited from earlier work.
The conditions of series [8]: injected in castrated male sheep; cited from earlier work.
The mark [9] stands for this setting: glyburide active + IGF-I placebo.
[10] abbreviates: glyburide active + IGF-I placebo, abdominal CT, change from baseline.
The mark [11] stands for this setting: glyburide 10 mg BID + rhIGF-I placebo.
Setting [12] is: IGF-I 20 μg/kg, with glyburide or glyburide placebo per label.
The mark [13] stands for this setting: IGF-I 40 μg/kg, with glyburide or glyburide placebo per label.
Setting [14] is: IGF-I 20 μg/kg BID, with glyburide or glyburide placebo per label.
The mark [15] stands for this setting: IGF-I 40 μg/kg BID, with glyburide or glyburide placebo per label.
The mark [16] stands for this setting: subjects treated with 20 micrograms of IGF-I.

Where “and” joins values, the source holds several entries; their conditions need not be identical. Equal values may be shown once.

Consider `COc1ccc(Cl)cc1C(=O)NCCc1ccc(S(=O)(=O)NC(=O)NC2CCCCC2)cc1` [Glyburide, glyburide, reference compound], for which, in series [1] (setting [9]), the “Mean SAT % Change (SEM)” value is 1% and 1.0 (1.9) %; the “Mean VAT % Change (SEM)” value was 9% and 9.3 (3.9) %. Moreover, in series [1] (setting [10]), the “Change in SAT, mean (SEM)” value is recorded as 2.0 (5.6) cm^2 and the “Change in VAT, mean (SEM)” value was 13.6 (6.4) cm^2. For the same molecule, in series [1] (glyburide alone), the “change in abdominal perimeter by CT scan, mean±SEM” value (shortened to “change … mean±SEM”) is −0.3±0.8 cm. For the same molecule, the “Weight Change (SE) Week 12” value in series [2] (setting [11]) is −0.1 (0.5) kg. Also, in series [3], the “Adverse event: Arthralgia” value was 1 (3) n (%), the “Adverse event: Asthenia” value is given as 2 (6) n (%), the “Adverse event: Headache” value was 2 (6) n (%) and the “Adverse event: Hypoglycemia” value is 3 (9) n (%). Besides, in series [3], the “Adverse event: Jaw pain” value is reported as 1 (3) n (%), the “Adverse event: Pain” value is recorded as 2 (6) n (%) and the “Adverse event: Peripheral Edema” value is 0 n (%). Also, in series [4] (setting [11]), the “BMI Change (SE) Wk 12” value was 0.0 (0.2) kg/m^2 and the “BMI Change (SE) Wk 14” value was 0.0 (0.3) kg/m^2. The “BMI Change (SE) Wk 8” value in series [4] (glyburide 10 mg BID + rhIGF-I placebo, change from Day 1) was −0.1 (0.1) kg/m^2.
With “IGF-I: recombinant human insulin-like growth factor-I from Genentech; sterile benzyl alcohol-preserved solution, 70 mg in 7 mL acetate/NaCl, pH 5.4; given SC”, in series [1] (setting [12]), the “Change in SAT, mean (SEM)” value is −12.3 (4.1) cm^2; the “Change in VAT, mean (SEM)” value is on record as 1.0 (9.0) cm^2; the “Mean SAT % Change (SEM)” value is −6.0 (2.6) %; the “Mean VAT % Change (SEM)” value is on record as 1.0 (4.0) %. In addition, in series [1] (setting [13]), the “Change in SAT, mean (SEM)” value is −16.1 (5.4) cm^2; the “Change in VAT, mean (SEM)” value is −20.0 (7.6) cm^2; the “Mean SAT % Change (SEM)” value is on record as −6.4 (2.5) %; the “Mean VAT % Change (SEM)” value is listed as −9.4 (3.9) %. In addition, the “visceral fat area reduced by” value in series [1] (IGF-I alone at 40 μg/kg) was about 10%. Also, the “change … mean±SEM” value in series [1] (IGF-I at 20 micrograms/kg) is −1.4±0.8 cm. In addition, the “change … mean±SEM” value in series [1] (IGF-I at 40 micrograms/kg) is given as −2.9±1.3 cm. Moreover, the “Weight Change (SE) Week 12” value in series [2] (setting [14]) was −2.8 (0.7) kg. Further, in series [2] (setting [15]), the “Weight Change (SE) Week 12” value is −0.6 (0.7) kg. For the same molecule, in series [2] (low dose IGF-I (20 μg/kg BID) alone), the “weight lost on average, Week 12” value was 2.8 kg. For the same molecule, in series [5], the “percentage of body fat” value was “trend toward a lower percentage of body fat”. Also, the “effect on body fat and body composition” value in series [6] is on record as “little effect”. Besides, in series [4] (setting [14]), the “BMI Change (SE) Wk 8” value is −0.5 (0.2) kg/m^2, the “BMI Change (SE) Wk 12” value is −1.0 (0.2) kg/m^2 and the “BMI Change (SE) Wk 14” value is listed as −0.9 (0.2) kg/m^2. Also, in series [4] (setting [15]), the “BMI Change (SE) Wk 8” value is given as −0.1 (0.2) kg/m^2, the “BMI Change (SE) Wk 12” value is given as −0.2 (0.2) kg/m^2 and the “BMI Change (SE) Wk 14” value is listed as −0.6 (0.2) kg/m^2. For the same molecule, in series [4] (setting [16]), the “BMI fell by, at 12 weeks” value is reported as 1.0 kg/m^2 and the “BMI fell by, at week 14” value came out at 0.9 kg/m^2. Further, the body mass index result in series [7] is listed as “reduced body mass index”. In series [8], the “effect on body fat” value was “no detectable effect” and the insulin levels result is “lowered insulin levels”.

Source of the values: patent publication US7833964B2, “Methods of reducing visceral fat by increasing levels of insulin-like growth factor-I (IGF-I)” (Tercica, Inc., priority 2003, dated 2010).
